Results taken from US8048825B2, “Haloalkylsulfonanilide derivatives or salt thereof, herbicide comprising the derivatives as active ingredient, and use of the herbicide” (Nihon Nohyaku Co., Ltd., priority 2006, dated 2011).

Experiments:
Assay type in all cases: in vivo
Lindernia procumbens [1] = assay: Herbicidal effect on paddy field weeds of post-emergence stage (Post), Test Example 2; conditions: one-leaf stage, 1000 g/ha as active ingredient, examined after 21 days
In short: (§1)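 Post-emergence paddy test: formulated compound added to 5 cm standing water at 1000 g/ha a.i. when weeds reached one-leaf stage in clay loam pots in greenhouse. Growth inhibition rated 21 days later versus untreated control on a 0 (0%) to 5 (100%) scale.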

Scirpus juncoides [2] = assay: as above; conditions: one-leaf stage, 1000 g/ha as active ingredient, examined after 21 days
In short: as §1

Echinochloa crus-galli = assay: as above; conditions: one-leaf stage, 1000 g/ha as active ingredient, examined after 21 days
In short: as §1

Lindernia procumbens [3] = assay: Herbicidal efficacy on paddy field weeds of pre-emergence stage (Pre), Test Example 1; conditions: 1000 g/ha as active ingredient, examined after 21 days
In short: (§2)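 Pre-emergence paddy test: 1000 g/ha active ingredient, formulated and water-diluted, dropped onto 5 cm floodwater one day after sowing both weeds in clay loam. After 21 days in greenhouse, inhibition relative to untreated control rated on 0 (0%) to 5 (100%) scale.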

Scirpus juncoides [4] = assay: as above; conditions: 1000 g/ha as active ingredient, examined after 21 days
In short: as §2

Row | Structure (SMILES) | Lindernia procumbens post (herbicidal effect) (Lindernia procumbens [1]) | Scirpus juncoides post (herbicidal effect) (Scirpus juncoides [2]) | Echinochloa crus-galli post (herbicidal effect) (Echinochloa crus-galli) | Lindernia procumbens pre (herbicidal effect) (Lindernia procumbens [3]) | Scirpus juncoides pre (herbicidal effect) (Scirpus juncoides [4])
1 | CCOC(=O)N(c1ccccc1CN1CC(C)(C)C(c2ccccc2)OC1=O)S(=O)(=O)C(F)(F)F (stereo not shown) [Compound 1-263] | 5 (100% herbicidal effect, phytotoxicity) | 4 (90%-99% herbicidal effect, phytotoxicity) | 4 (90%-99% herbicidal effect, phytotoxicity) | 5 (100% herbicidal effect, phytotoxicity) | 4 (90%-99% herbicidal effect, phytotoxicity)
2 | O=C1OC(c2c(Cl)cccc2Cl)CCN1Cc1ccccc1NS(=O)(=O)C(F)(F)F (stereo not shown) [Compound 1-272] | 5 (100% herbicidal effect, phytotoxicity) | 4 (90%-99% herbicidal effect, phytotoxicity) | 4 (90%-99% herbicidal effect, phytotoxicity) | 5 (100% herbicidal effect, phytotoxicity) | 4 (90%-99% herbicidal effect, phytotoxicity)
3 | CCOC(=O)N(c1ccccc1CN1CCC(c2c(Cl)cccc2Cl)OC1=O)S(=O)(=O)C(F)(F)F (stereo not shown) [Compound 1-274] | 5 (100% herbicidal effect, phytotoxicity) | 4 (90%-99% herbicidal effect, phytotoxicity) | 4 (90%-99% herbicidal effect, phytotoxicity) | 5 (100% herbicidal effect, phytotoxicity) | 4 (90%-99% herbicidal effect, phytotoxicity)
4 | Cc1ccccc1C1CCN(Cc2ccccc2NS(=O)(=O)C(F)(F)F)C(=O)O1 (stereo not shown) [Compound 1-283] | 5 (100% herbicidal effect, phytotoxicity) | 4 (90%-99% herbicidal effect, phytotoxicity) | 4 (90%-99% herbicidal effect, phytotoxicity) | 5 (100% herbicidal effect, phytotoxicity) | 5 (100% herbicidal effect, phytotoxicity)
5 | CCOC(=O)N(c1ccccc1CN1CCC(c2ccccc2C)OC1=O)S(=O)(=O)C(F)(F)F (stereo not shown) [Compound 1-285] | 5 (100% herbicidal effect, phytotoxicity) | 4 (90%-99% herbicidal effect, phytotoxicity) | 4 (90%-99% herbicidal effect, phytotoxicity) | 5 (100% herbicidal effect, phytotoxicity) | 4 (90%-99% herbicidal effect, phytotoxicity)
6 | CCOC(=O)N(c1ccccc1CN1CCC(c2ccccc2C(F)(F)F)OC1=O)S(=O)(=O)C(F)(F)F (stereo not shown) [Compound 1-296] | 5 (100% herbicidal effect, phytotoxicity) | 4 (90%-99% herbicidal effect, phytotoxicity) | 4 (90%-99% herbicidal effect, phytotoxicity) | 5 (100% herbicidal effect, phytotoxicity) | 4 (90%-99% herbicidal effect, phytotoxicity)
7 | CCC1(c2ccccc2)CCN(Cc2ccccc2NS(=O)(=O)C(F)(F)F)C(=O)O1 (stereo not shown) [Compound 1-316] | 5 (100% herbicidal effect, phytotoxicity) | 4 (90%-99% herbicidal effect, phytotoxicity) | 4 (90%-99% herbicidal effect, phytotoxicity) | 5 (100% herbicidal effect, phytotoxicity) | 4 (90%-99% herbicidal effect, phytotoxicity)
8 | CCC1(c2ccccc2)CCN(Cc2ccccc2N(C(=O)OC)S(=O)(=O)C(F)(F)F)C(=O)O1 (stereo not shown) [Compound 1-317] | 5 (100% herbicidal effect, phytotoxicity) | 4 (90%-99% herbicidal effect, phytotoxicity) | 4 (90%-99% herbicidal effect, phytotoxicity) | 5 (100% herbicidal effect, phytotoxicity) | 4 (90%-99% herbicidal effect, phytotoxicity)
9 | CCOC(=O)N(c1ccccc1CN1CCC(CC)(c2ccccc2)OC1=O)S(=O)(=O)C(F)(F)F (stereo not shown) [Compound 1-318] | 5 (100% herbicidal effect, phytotoxicity) | 4 (90%-99% herbicidal effect, phytotoxicity) | 4 (90%-99% herbicidal effect, phytotoxicity) | 5 (100% herbicidal effect, phytotoxicity) | 4 (90%-99% herbicidal effect, phytotoxicity)
10 | CCC1(c2ccccc2)CCN(Cc2ccccc2N(C(=O)OCC(C)C)S(=O)(=O)C(F)(F)F)C(=O)O1 (stereo not shown) [Compound 1-321] | 5 (100% herbicidal effect, phytotoxicity) | 4 (90%-99% herbicidal effect, phytotoxicity) | 4 (90%-99% herbicidal effect, phytotoxicity) | 5 (100% herbicidal effect, phytotoxicity) | 4 (90%-99% herbicidal effect, phytotoxicity)
11 | CC(C)(C)C1(C)CCN(Cc2ccccc2NS(=O)(=O)C(F)(F)F)C(=O)O1 (stereo not shown) [Compound 1-327] | 5 (100% herbicidal effect, phytotoxicity) | 4 (90%-99% herbicidal effect, phytotoxicity) | 4 (90%-99% herbicidal effect, phytotoxicity) | 5 (100% herbicidal effect, phytotoxicity) | 5 (100% herbicidal effect, phytotoxicity)
12 | CCOC(=O)N(c1ccccc1CN1CCC(C)(C(C)(C)C)OC1=O)S(=O)(=O)C(F)(F)F (stereo not shown) [Compound 1-329] | 5 (100% herbicidal effect, phytotoxicity) | 4 (90%-99% herbicidal effect, phytotoxicity) | 4 (90%-99% herbicidal effect, phytotoxicity) | 5 (100% herbicidal effect, phytotoxicity) | 5 (100% herbicidal effect, phytotoxicity)
13 | CC(C)COC(=O)N(c1ccccc1CN1CCC(C)(C(C)(C)C)OC1=O)S(=O)(=O)C(F)(F)F (stereo not shown) [Compound 1-332] | 5 (100% herbicidal effect, phytotoxicity) | 4 (90%-99% herbicidal effect, phytotoxicity) | 4 (90%-99% herbicidal effect, phytotoxicity) | 5 (100% herbicidal effect, phytotoxicity) | 5 (100% herbicidal effect, phytotoxicity)
14 | COC(=O)N(c1ccccc1CN1CCC(C(F)(F)F)(C(F)(F)F)OC1=O)S(=O)(=O)C(F)(F)F [Compound 1-339] | 5 (100% herbicidal effect, phytotoxicity) | 4 (90%-99% herbicidal effect, phytotoxicity) | 4 (90%-99% herbicidal effect, phytotoxicity) | 5 (100% herbicidal effect, phytotoxicity) | 4 (90%-99% herbicidal effect, phytotoxicity)
15 | CC(C)COC(=O)N(c1ccccc1CN1CCC(C(F)(F)F)(C(F)(F)F)OC1=O)S(=O)(=O)C(F)(F)F [Compound 1-343] | 5 (100% herbicidal effect, phytotoxicity) | 4 (90%-99% herbicidal effect, phytotoxicity) | 4 (90%-99% herbicidal effect, phytotoxicity) | 5 (100% herbicidal effect, phytotoxicity) | 5 (100% herbicidal effect, phytotoxicity)
16 | COC(=O)N(c1ccccc1CN1CCC(c2c(C)cccc2C)OC1=O)S(=O)(=O)C(F)(F)F (stereo not shown) [Compound 1-361] | 5 (100% herbicidal effect, phytotoxicity) | 4 (90%-99% herbicidal effect, phytotoxicity) | 4 (90%-99% herbicidal effect, phytotoxicity) | 5 (100% herbicidal effect, phytotoxicity) | 5 (100% herbicidal effect, phytotoxicity)
17 | CCOC(=O)N(c1ccccc1CN1CCC(c2c(C)cccc2C)OC1=O)S(=O)(=O)C(F)(F)F (stereo not shown) [Compound 1-362] | 5 (100% herbicidal effect, phytotoxicity) | 4 (90%-99% herbicidal effect, phytotoxicity) | 4 (90%-99% herbicidal effect, phytotoxicity) | 5 (100% herbicidal effect, phytotoxicity) | 4 (90%-99% herbicidal effect, phytotoxicity)
